From article PMC10924156, “Design, Preclinical Evaluation, and Clinical Translation of ^68Ga-FAPI-LM3, a Heterobivalent Molecule for PET Imaging of Nasopharyngeal Carcinoma” (Journal of Nuclear Medicine, 2024)
Positions of bridges follow the written chain, without caps; N, C: chain ends. Non-standard residues stand in square brackets, D forms with d. Residues, ends and D or L forms follow the SMILES beside them. *: point of attachment. DOTA = O=C(O)CN1CCN(CC(=O)O)CCN(CC(=O)*)CCN(CC(=O)O)CC1; dPhe(4-NHCONH2) = NC(=O)Nc1ccc(C[C@@H](N)C(=O)O)cc1; Phe(4-Cl) = N[C@@H](Cc1ccc(Cl)cc1)C(=O)O

Key:
Small-animal PET imaging = details: BALB/c nude, mouse, tumor (HT-1080-FAP plus HT-1080-SSTR2 xenograft), iv, 7.4 MBq, total radioactivity, tumor uptake (PET), i.v. approx 7.4 MBq, 3 mice/group
Method: (§1) Tumor-bearing mice (3/group) were intravenously injected with approximately 7.4 MBq of ^68Ga-FAPI-LM3, ^68Ga-FAPI-46, or ^68Ga-DOTA-LM3. Subsequent static PET scans were obtained at intervals of 0.5, 1, 2, and 4 h after injection using an Inveon small-animal PET scanner (Siemens). In the blocking experiment, approximately 60 nmol of the unlabeled precursor (FAPI-46, DOTA-LM3, or FAPI-46 plus DOTA-LM3) were simultaneously injected with ^68Ga-FAPI-LM3. The PET images were reconstructed iteratively using 3-dimensional OpMAP 256 (PET reconstruction protocol [.pPetRcn]; Siemens Healthineers AG) and converted to percentage injected dose per gram of tissue (%ID/g) by delineating the regions of interest. For the biodistribution studies, approximately 1.48 MBq of ^68Ga-FAPI-LM3, ^68Ga-FAPI-46, ^68Ga-DOTA-LM3, or ^68Ga-FAPI-LM3 with unlabeled precursor were injected into tumor-bearing mice (3/group), and different groups of mice were euthanized at the scheduled time points after injection.

[1] = design: method as in 2 sources, ref 21 = [21]; PMID 30072500; doi:10.2967/jnumed.118.215913; 21. Giesel FL Kratochwil C Lindner T . 68 Ga-FAPI PET/CT: biodistribution and preliminary dosimetry estimate of 2 DOTA-containing FAP-targeting agents in patients with various cancers . J Nucl Med. 20 ||| ref 15 = [15]; PMID 33579804; doi:10.2967/jnumed.120.253096; 15. Zhu W Cheng Y Jia R . A prospective, randomized, double-blind study to evaluate the safety, biodistribution, and dosimetry of 68 Ga-NODAGA-LM3 and 68 Ga-DOTA-LM3 in patients with well-differentiat; details: in vivo; cited from earlier work
[2] = Ex vivo biodistribution study; details: BALB/c nude, mouse, tumor (HT-1080-FAP plus HT-1080-SSTR2 xenograft), 1.48 MBq, total radioactivity
Method: as §1

tissue uptake at 1 h (Small-animal PET imaging; 1 h after injection): 5.93 ± 0.5 %ID/g | tissue uptake at 4 h (Small-animal PET imaging; 4 h after injection): 4.46 ± 0.57 %ID/g | tissue uptake at 1 h [2]: 7.88 ± 1.1 %ID/g
SMILES: C[C@@H](O)[C@@H]1NC(=O)[C@H](CCCCN)NC(=O)[C@@H](Cc2ccc(NC(N)=O)cc2)NC(=O)[C@H](Cc2ccc(O)cc2)NC(=O)[C@H](NC(=O)[C@H](Cc2ccc(Cl)cc2)NC(=O)CN2CCN(CC(=O)O)CCN(CC(=O)O)CCN(CC(=O)O)CC2)CSSC[C@@H](C(=O)N[C@H](Cc2ccc(O)cc2)C(N)=O)NC1=O [^68Ga-DOTA-LM3, metal not drawn, reference compound] ({DOTA}-[Phe(4-Cl)][dC]Y[dPhe(4-NHCONH2)]KTC[dY]-NH2; disulfide 2-7)
effective dose [1]: 2.50 × 10^−2 mSv/MBq
